Measurements taken from patent publication US20100298141A1, “SUBSTITUTED PYRIDINE N-OXIDE HERBICIDES” (E. I. DU PONT DE NEMOURS AND COMPANY, priority 2007, published 2010).

Key:
corn [1] = test: Test A pre-/postemergence greenhouse test; assay type: in vivo, Zea mays; conditions: for Plant response rating, Corn: 0 to 100 scale where 0 is no effect and 100 is complete control; for Corn plant response rating: 0 to 100 scale
In short: (§1)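 Seeds sown in a loam soil–sand blend got a preemergence directed soil spray of compound in a non-phytotoxic solvent mixture containing surfactant. Postemergence sprays of the same formulation went at the same time onto plants 2–10 cm tall at the one- to two-leaf stage. Injury was scored visually against untreated controls after about ten days in the greenhouse.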

wheat = test: Test A pre-/postemergence greenhouse test; assay type: in vivo, Triticum aestivum; conditions: for Plant response rating, Wheat: 0 to 100 scale where 0 is no effect and 100 is complete control; for Wheat plant response rating: 0 to 100 scale
In short: as §1

corn [2] = test: Test C pre-/postemergence test; assay type: in vivo, Zea mays; conditions: Postemergence; for Plant response rating, Corn: scale 0 to 100, 0 no effect, 100 complete control
From the text: (§2) Seeds of plant species selected from blackgrass (Alopecurus myosuroides), downy brome (Bromus tectorum), green foxtail (Setaria viridis), Italian ryegrass (Lolium multiflorum), wheat (Triticum aestivum), wild oat (Avena fatua), catchweed bedstraw (Galium aparine), Russian thistle (Salsola kali), […] (Cynodon dactylon), Surinam grass (Brachiaria decumbens), cocklebur (Xanthium strumarium), corn (Zea mays), crabgrass (Digitaria sanguinalis), woolly cupgrass (Eriochloa villosa), giant foxtail (Setaria faberii), Goosegrass (Eleusin indica), johnsongrass (Sorghum halepense), kochia (Kochia scoparia), lambsquarters (Chenopodium album), morningglory (Ipomoea coccinea), eastern black nightshade (Solanum ptycanthum), yellow nutsedge (Cyperus esculentus), pigweed (Amaranthus retroflexus), common ragweed (Ambrosia elation), soybean (Glycine max), common (oilseed) sunflower (Helianthus annuus), and velvetleaf (Abutilon theophrasti) were planted and treated preemergence with test chemicals formulated in a non-phytotoxic solvent mixture which included a surfactant. At the same time, plants selected from these crop and weed species and also winter barley (Hordeum vulgare), canarygrass (Phalaris minor), and chickweed (Stellaria media) were treated with postemergence applications of some of the test chemicals formulated in the same manner. Plants ranged in height from 2 to 18 cm (1- to 4-leaf stage) for postemergence treatments. […] At time of treatment, test pots were flooded to 3 cm above the soil surface, treated by application of test compounds directly to the paddy water, and then maintained at that water depth for the duration of the test. […] A dash (-) response means no test result.

pigweed = test: Test C pre-/postemergence test; assay type: in vivo, Amaranthus retroflexus; conditions: Postemergence; for Plant response rating, Pigweed: scale 0 to 100, 0 no effect, 100 complete control
From the text: as §2

crabgrass [3] = test: Test A pre-/postemergence greenhouse test; assay type: in vivo, Digitaria sanguinalis; conditions: for Plant response rating, Crabgrass, Large: 0 to 100 scale where 0 is no effect and 100 is complete control; for Crabgrass, Large plant response rating: 0 to 100 scale
In short: as §1

Italian ryegrass = test: Test C pre-/postemergence test; assay type: in vivo, Lolium multiflorum; conditions: Postemergence; for Plant response rating, Ryegrass, Italian: scale 0 to 100, 0 no effect, 100 complete control
From the text: as §2

velvetleaf = test: Test C pre-/postemergence test; assay type: in vivo, Abutilon theophrasti; conditions: Postemergence; for Plant response rating, Velvetleaf: scale 0 to 100, 0 no effect, 100 complete control
From the text: as §2

Surinam grass = test: Test C pre-/postemergence test; assay type: in vivo, Brachiaria decumbens; conditions: Postemergence; for Plant response rating, Surinam Grass: scale 0 to 100, 0 no effect, 100 complete control
From the text: as §2

crabgrass [4] = test: Test C pre-/postemergence test; assay type: in vivo, Digitaria sanguinalis; conditions: Postemergence; for Plant response rating, Crabgrass, Large: scale 0 to 100, 0 no effect, 100 complete control
From the text: as §2

giant foxtail = test: Test C pre-/postemergence test; assay type: in vivo, Setaria faberii; conditions: Postemergence; for Plant response rating, Foxtail, Giant: scale 0 to 100, 0 no effect, 100 complete control
From the text: as §2

Goosegrass = test: Test C pre-/postemergence test; assay type: in vivo, Eleusin indica; conditions: Postemergence; for Plant response rating, Goosegrass: scale 0 to 100, 0 no effect, 100 complete control
From the text: as §2

morningglory = test: Test C pre-/postemergence test; assay type: in vivo, Ipomoea coccinea; conditions: Postemergence; for Plant response rating, Morningglory: scale 0 to 100, 0 no effect, 100 complete control
From the text: as §2

johnsongrass = test: Test C pre-/postemergence test; assay type: in vivo, Sorghum halepense; conditions: Postemergence; for Plant response rating, Johnsongrass: scale 0 to 100, 0 no effect, 100 complete control
From the text: as §2

umbrella sedge = test: Test C flooded paddy test; assay type: in vivo, Cyperus difformis; conditions: Flood
In short: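 Under a constant 3 cm flood, test compounds went directly into the paddy water. Following 13 to 15 days of greenhouse growth, treated species and controls were compared by eye.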

barnyardgrass = test: Test A pre-/postemergence greenhouse test; assay type: in vivo, Echinochloa crus-galli; conditions: for Plant response rating, Barnyardgrass: 0 to 100 scale where 0 is no effect and 100 is complete control; for Barnyardgrass plant response rating: 0 to 100 scale
In short: as §1

[5] = Postemergence, 500 g ai/ha, 0 is no effect, 100 is complete control
[6] = Preemergence, 125 g ai/ha, 0 no effect, 100 complete control

Cn1nc(C(F)(F)F)c(C[S+]([O-])c2cccc[n+]2[O-])c1OCC(F)(F)C(F)(F)F (stereo not shown) [Compound 78]
Plant response rating, Corn (corn [1]; Postemergence, 125 g ai/ha): 20
Corn plant response rating (corn [1]; [5]): 40
Corn plant response rating (corn [1]; [6]): 30
Plant response rating, Corn (corn [1]; Preemergence, 500 g ai/ha): 90
Plant response rating, Wheat (wheat; Postemergence, 125 g ai/ha): 30
Wheat plant response rating (wheat; [5]): 60
Wheat plant response rating (wheat; [6]): 30
Plant response rating, Wheat (wheat; Preemergence, 500 g ai/ha): 100
Plant response rating (0 to 100), Corn (corn [2]; 31 g ai/ha): 0
Plant response rating, Corn (corn [2]; 62 g ai/ha): 0
Plant response rating, Corn (corn [2]; 125 g ai/ha): 0
Plant response rating, Corn (corn [2]; 250 g ai/ha): 20
Plant response rating (0 to 100), Pigweed (pigweed; 31 g ai/ha): 0
Plant response rating (0 to 100), Pigweed (pigweed; 62 g ai/ha): 0
Plant response rating, Pigweed (pigweed; 125 g ai/ha): 30
Plant response rating, Pigweed (pigweed; 250 g ai/ha): 35
Plant response rating, Crabgrass, Large (crabgrass [3]; Postemergence, 125 g ai/ha): 70
Crabgrass, Large plant response rating (crabgrass [3]; [5]): 80
Crabgrass, Large plant response rating (crabgrass [3]; [6]): 30
Plant response rating, Crabgrass, Large (crabgrass [3]; Preemergence, 500 g ai/ha): 100
Plant response rating (0 to 100), Ryegrass, Italian (Italian ryegrass; 31 g ai/ha): 0
Plant response rating (0 to 100), Ryegrass, Italian (Italian ryegrass; 62 g ai/ha): 0
Plant response rating, Ryegrass, Italian (Italian ryegrass; 125 g ai/ha): 30
Plant response rating, Ryegrass, Italian (Italian ryegrass; 250 g ai/ha): 30
Plant response rating (0 to 100), Velvetleaf (velvetleaf; 31 g ai/ha): 0
Plant response rating (0 to 100), Velvetleaf (velvetleaf; 62 g ai/ha): 0
Plant response rating, Velvetleaf (velvetleaf; 125 g ai/ha): 0
Plant response rating, Velvetleaf (velvetleaf; 250 g ai/ha): 20
Plant response rating (0 to 100), Surinam Grass (Surinam grass; 31 g ai/ha): 0
Plant response rating (0 to 100), Surinam Grass (Surinam grass; 62 g ai/ha): 0
Plant response rating, Surinam Grass (Surinam grass; 125 g ai/ha): 0
Plant response rating, Surinam Grass (Surinam grass; 250 g ai/ha): 70
Plant response rating (0 to 100), Crabgrass, Large (crabgrass [4]; 31 g ai/ha): 0
Plant response rating, Crabgrass, Large (crabgrass [4]; 62 g ai/ha): 0
Plant response rating, Crabgrass, Large (crabgrass [4]; 125 g ai/ha): 0
Plant response rating, Crabgrass, Large (crabgrass [4]; 250 g ai/ha): 20
Plant response rating (0 to 100), Foxtail, Giant (giant foxtail; 31 g ai/ha): 0
Plant response rating, Foxtail, Giant (giant foxtail; 62 g ai/ha): 0
Plant response rating, Foxtail, Giant (giant foxtail; 125 g ai/ha): 45
Plant response rating, Foxtail, Giant (giant foxtail; 250 g ai/ha): 45
Plant response rating (0 to 100), Goosegrass (Goosegrass; 31 g ai/ha): 0
Plant response rating, Goosegrass (Goosegrass; 62 g ai/ha): 0
Plant response rating, Goosegrass (Goosegrass; 125 g ai/ha): 10
Plant response rating, Goosegrass (Goosegrass; 250 g ai/ha): 60
Plant response rating (0 to 100), Morningglory (morningglory; 31 g ai/ha): 0
Plant response rating, Morningglory (morningglory; 62 g ai/ha): 0
Plant response rating, Morningglory (morningglory; 125 g ai/ha): 0
Plant response rating, Morningglory (morningglory; 250 g ai/ha): 0
Plant response rating (0 to 100), Johnsongrass (johnsongrass; 31 g ai/ha): 0
Plant response rating, Johnsongrass (johnsongrass; 62 g ai/ha): 0
Plant response rating, Johnsongrass (johnsongrass; 125 g ai/ha): 0
Plant response rating, Johnsongrass (johnsongrass; 250 g ai/ha): 45
Plant response rating, Sedge, Umbrella (umbrella sedge; 62 g ai/ha, scale 0 to 100 (0 no effect, 100 complete control)): 75
Plant response rating, Sedge, Umbrella (umbrella sedge; 250 g ai/ha, scale 0 to 100, 0 no effect, 100 complete control, 13 to 15 days): 100
Plant response rating, Barnyardgrass (barnyardgrass; Postemergence, 125 g ai/ha): 80
Barnyardgrass plant response rating (barnyardgrass; [5]): 80
Barnyardgrass plant response rating (barnyardgrass; [6]): 70
Plant response rating, Barnyardgrass (barnyardgrass; Preemergence, 500 g ai/ha): 100
